Columns and labels:
Assay type in all cases: cell-based
[1] = system: GABAAR (β3^HA) at the plasma membrane, no UT; assay: GABAAR internalization by immunofluorescence in CHO expressing GABAAR alone; conditions: hUII 10^−8 M, Iso 10^−4 M or both
Description: (§1) For double-immunofluorescence, non-permeabilized living CHO cells expressing UT and/or α2β3 ^HAγ2 GABAA receptors were washed two times in PBS, and incubated with monoclonal mouse anti-c-myc and rabbit polyclonal anti-HA (1∶200, Santa-cruz) for 1 h on ice in DMEM. Excess antibody was removed and cells were incubated with the different receptor agonists for 30 min at RT. After several rinses in PBS, cells were fixed in 4% paraformaldehyde at 4°C for 20 min, washed three times in PBS and then incubated at RT for 2 h with appropriate secondary antibodies, i.e. Alexa-488- and 594-conjugated donkey anti-mouse IgGs diluted 1∶300 (Invitrogen). After washing, coverslips were mounted in Eukitt (VWR International, Strasbourg, France).
(§2) All preparations were examined using a confocal laser-scanning microscope (Leica, Heidelberg, Germany) equipped with a Diaplan optical system, a UV laser (excitation wavelength 405 nm) and argon/krypton ion (excitation wavelengths 488/594 nm) laser.

[2] = system: GABAAR (β3^HA) at the plasma membrane of CHO co-expressing human UT; assay: GABAAR internalization by immunofluorescence in CHO-UT-GABAAR (α2β3^HAγ2); conditions: hUII 10^−8 M, Iso 10^−4 M or both; 60 min (Figure 9 legend); mean ± SEM, 3 to 18 cells
Description: as §1, with “Excess antibody was removed and cells were incubated with the different receptor agonists for 30 min at RT.” left out
as §2

human UT^c-myc = assay: Cell surface ELISA of UT^c-myc in CHO; conditions: hUII 10^−8 M, 30 min
Text: For UT epitope-tagged with HA (UT^HA), or c-myc (UT^c-myc), human UT receptor cDNA inserted into pcDNA3.1 (Ressource Center, MI, USA) was amplified and PCR products were subcloned using the EcoRI and XhoI sites of pCMV-HA or pCMV-c-myc. Mutant UT receptor cDNAs were constructed by oligonucleotide-directed mutagenesis (Expand High Fidelity PCR System; Roche) using the human UT receptor cDNA inserted into pcDNA3.1 as a template. Two sets of forward and reverse oligonucleotides were used (Table S2) to introduce stop codons in frame of Leu370, Phe351, Gly332 and Thr319 (to generate UT371, UT351, UT332 and UT319, respectively). PCR products were subcloned using the EcoRI and XhoI sites of pCMV-HA after digestion by the same restriction enzymes. Mutagenesis was confirmed by automated nucleotide sequencing.
Cells were plated at 50 000 cells/well in 96-well plates coated with 0.1 mg/ml poly-L-ornithine (Sigma-Aldrich). […] The cells were washed four times with PBS, a colorimetric alkaline phosphatase substrate was added (SuperSignal ELISA, Thermo scientific, Fisher) and the resulting color reaction was measured using a Viktor multilabel plate reader (PerkinElmer, Courtaboeuf, France). Background absorbance from samples transfected with non-tagged receptors or from cells without first antibodies were systematically measured. […]

UT in human U87 glioma = assay: Flow cytometry of cell surface UT in U87 glioma; conditions: hUII 10^−8 M, 30 min
Description: (§3) The human cell line from glioblastoma U87 was obtained from the American Type Culture Collection (LGC Standards, Molsheim, France). U87 cells were maintained in DMEM containing 10% FBS and 1% sodium pyruvate. NHA-Astrocytes (Lonza, Walkersville, MD, USA) were cultivated in DMEM culture medium supplemented with 2 mM glutamine, 5 mM HEPES, 1% non essential amino acids, 1% sodium pyruvate, B27, 25 ng/ml EGF, 1% of the antibiotic-antimycotic solution and 10% FBS. All cells were incubated at 37°C in a humidified atmosphere containing 5% CO2. Culture media were replaced every three days.
(§4) Human astrocytes and glioma U87 grown in 75-cm2 flasks until confluence were washed in PBS, detached and spun down at 4°C. The cell pellet was washed, re-suspended in PBS containing 1% BSA and incubated with 10 µg/mL non-immune rabbit IgGs for 30 min. […] Cells were incubated with an FITC- or PerCP-conjugated goat anti-rabbit secondary antibody (Santa Cruz) diluted 1∶200 and measured in the FL1 (530 nm) or FL3 (670 nm) channel. Cells were analyzed on a FACScalibur flow cytometer (BD Biosciences) operated with the Cell QuestTM software. Samples in which the primary antibodies were omitted were used as control to normalize mean fluorescence levels. […] Each histogram plot was recorded from at least 10,000 gated events.

[3] = system: UT in native human astrocytes; assay: Flow cytometry of cell surface UT in native human astrocytes; conditions: hUII 10^−8 M, 30 min
Description: as §3, §4

Compound	GABAAR internalization without UT [1]	GABAAR endocytosis [2] [%]	Effect on cell membrane amounts of UT^c-myc (human UT^c-myc)	UT at cell surface, U87 (UT in human U87 glioma)	UT at cell surface, human astrocytes [3]
O=C(O)C1=CCNCC1 [Iso, isoguvacine]	remained able to provoke GABAAR removal from the plasma membrane	39.31±2.84			
ETPDCFWKYCV (disulfide) [hUII, human urotensin II, synthesized by solid phase methodology]	failed to induce GABAAR internalization	40.29±4.14	without modifying cell membrane amounts of UT^c-myc	still present at the cell surface in U87	UT internalized in native astrocytes
UII: Urotensin II, species not stated at that place (rUII in astrocytes, hUII in CHO and human cells)			failed to internalize UT in CHO and U87	failed to internalize UT in CHO and U87	led to UT loss from human astrocyte surface

Reference: article PMC3341351, “Down-Regulation of GABAA Receptor via Promiscuity with the Vasoactive Peptide Urotensin II Receptor. Potential Involvement in Astrocyte Plasticity” (PLoS ONE, 2012)
